Assays:
clinical = details: human, in vivo, po
Text: Pharmacodynamics of baclofen and acamprosate have been established in the frame of clinical trial.

[1] = tested on: 11 month-old C57B1/6 mice; assay: % of alternation in T-maze test, healthy mice (short term memory); type: in vivo; details: administered once 2 hours before the test, very low doses (mix doses 4 and 5), FIG. 2
Method: 11 month-old C57B1/6 mice are used. They are group-housed (5-10 mice per cage) and maintained in a room with controlled temperature (21-22° C.) and a reversed light-dark cycle (12 h/12 h; lights on: 17:30-05:30; lights off: 05:30-17:30) with food and water available ad libitum.
Drugs are solubilized in water and freshly prepared just before each gavage or ip administration and are kept under agitation.
Doses of drugs of the invention are exemplified in table 4. Concerning acamprosate calcium, the indicated doses refer to the doses of the salt of molecule.
Between day 0 and day 7, drug combinations or the vehicle solution were administered twice daily (at 8:00 am and 6:00 pm). One animal group receives donepezil (reference compound 0.3 mg/kg) at 8:00 am and the vehicle at 6:00 pm.
On day 8, all animals were tested for the % of alternation performance in the T-maze test, 2 hours after the administration of drugs combination or the vehicle solution.
The eve of the test, drug combinations or the vehicle solution were administered at 8:00 am and 6:00 pm. […]
The effect of the administration of combinations on short term memory was assessed for different durations of treatment (7 days, 1 day, 2 hours before the test). […]
The percent spontaneous alternation was calculated as the number of spontaneous alternations divided by the number of free-choice trials. […]

SMILES	Tmax (clinical)	improvement of learning and working memory performances vs vehicle [1]
NCC(CC(=O)O)c1ccc(Cl)cc1 (racemic) [baclofen, Baclofen]	1.5 h	no significant improvement
CC(=O)NCCCS(=O)(=O)O [acamprosate, Acamprosate]	1.5 to 2 h	no significant improvement

From patent US9789098B2, “Nootropic compositions for improving memory performance” (Pharnext, priority 2012, dated 2017)
